# Tests used:
# [1] = biological target: T1, Recombinant STAT3 protein (STAT3 (G127-I722)) (Homo sapiens, UniProt P40763); experiment: STAT3 Fluorescence Polarization (FP) Assay; type: binding; settings: STAT3 (G127-I722) 25 nM, probe 5-FAM-GpYLPQTV-NH2 2 nM, 45-minute incubation; read-out: STAT3 (FP assay IC50 class)
# T1 construct: Recombinant STAT3 protein (STAT3 (G127-I722))
# How it was run: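 In this competition FP format, STAT3 residues G127-I722 (25 nM) and 2 nM 5-FAM-GpYLPQTV-NH2 met test compounds for 45 min at room temperature. IC50 values result from fitting mP signal against log concentration by nonlinear regression.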
# [2] = biological target: T2, Recombinant STAT6 protein (STAT6 (W123-T658)) (Homo sapiens, UniProt P42226); experiment: STAT6 Fluorescence Polarization (FP) Assay; type: binding; settings: STAT6 (W123-T658) 250 nM, probe 5-FAM-Ap[…]-NH2 2 nM, 45-minute incubation; read-out: STAT6 (FP assay IC50 class)
# T2 construct: Recombinant STAT6 protein (STAT6 (W123-T658))
# T2 sequence (P42226 123-658): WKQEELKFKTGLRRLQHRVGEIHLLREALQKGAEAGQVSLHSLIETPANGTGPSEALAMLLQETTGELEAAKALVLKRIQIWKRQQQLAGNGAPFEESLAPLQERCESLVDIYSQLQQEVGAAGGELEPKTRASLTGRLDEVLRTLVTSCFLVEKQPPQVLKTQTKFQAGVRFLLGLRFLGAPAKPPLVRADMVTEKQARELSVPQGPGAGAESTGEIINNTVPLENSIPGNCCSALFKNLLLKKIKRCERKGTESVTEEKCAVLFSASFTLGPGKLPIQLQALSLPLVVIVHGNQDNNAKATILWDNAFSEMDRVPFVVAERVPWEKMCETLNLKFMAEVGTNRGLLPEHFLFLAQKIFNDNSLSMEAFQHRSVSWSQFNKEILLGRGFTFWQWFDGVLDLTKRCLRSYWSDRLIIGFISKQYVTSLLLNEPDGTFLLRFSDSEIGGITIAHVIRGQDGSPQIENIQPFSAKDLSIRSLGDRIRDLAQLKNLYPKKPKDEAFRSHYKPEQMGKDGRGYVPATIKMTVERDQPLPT
# How it was run: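 Recombinant STAT6 (W123-T658) at 250 nM mixed with 2 nM 5-FAM phosphotyrosine peptide probe in HEPES pH 7.4 buffer with DTT, 1% DMSO final, added to serially diluted compounds. FP (mP) read after 45 min at room temperature; IC50 by nonlinear regression vs log concentration.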
# T1 sequence (P40763 127-722): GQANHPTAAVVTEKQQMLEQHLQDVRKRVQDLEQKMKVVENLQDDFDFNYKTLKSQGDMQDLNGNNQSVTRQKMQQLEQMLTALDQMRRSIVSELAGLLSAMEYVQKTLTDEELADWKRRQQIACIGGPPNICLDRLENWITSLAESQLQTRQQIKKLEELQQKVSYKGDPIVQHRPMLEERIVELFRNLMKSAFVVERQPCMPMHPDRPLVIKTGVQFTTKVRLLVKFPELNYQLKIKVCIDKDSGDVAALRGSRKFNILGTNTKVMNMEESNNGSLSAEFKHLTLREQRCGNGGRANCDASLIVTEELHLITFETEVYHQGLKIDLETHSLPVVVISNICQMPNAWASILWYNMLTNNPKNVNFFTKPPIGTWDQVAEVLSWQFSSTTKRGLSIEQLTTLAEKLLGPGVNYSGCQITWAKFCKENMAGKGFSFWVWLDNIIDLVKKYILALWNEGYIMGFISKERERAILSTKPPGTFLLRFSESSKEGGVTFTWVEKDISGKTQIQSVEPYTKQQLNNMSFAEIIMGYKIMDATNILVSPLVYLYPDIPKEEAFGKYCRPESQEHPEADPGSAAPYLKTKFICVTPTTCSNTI
Structure (SMILES),IC50 [1] [µM],IC50 [2] [µM]
"Cn1ccc(=O)c(C2CN(C(=O)[C@@H]3CC[C@@H]4CCC[C@H](NC(=O)c5cc6cc(CP(=O)(O)O)ccc6s5)C(=O)N43)C2)c1 [Compound 584, ((2-(((3S,6S,9aS)-3-(3-(1-methyl-4-oxo-1,4-dihydropyridin-3-yl)azetidine-1-carbonyl)-5-oxooctahydro-1H-pyrrolo[1,2-a]azepin-6-yl)carbamoyl)benzo[b]thiophen-5-yl)methyl)phosphonic acid]",1 to 10,3 to 30
"CC(C)n1ccc(N2C(=O)N(C(=O)[C@@H]3CC[C@@H]4CCCC[C@H](NC(=O)c5cc6cc(C(F)P(=O)(O)O)ccc6s5)C(=O)N43)C3(CC3)C2=O)cc1=O (stereo partly drawn) [Compound 586, (fluoro(2-(((3S,6S,10aS)-3-(6-(1-isopropyl-2-oxo-1,2-dihydropyridin-4-yl)-5,7-dioxo-4,6-diazaspiro[2.4]heptane-4-carbonyl)-5-oxodecahydropyrrolo[1,2-a]azocin-6-yl)carbamoyl)benzo[b]thiophen-5-yl)methyl)phosphonic acid]",1 to 10,0.3 to 3
"O=C(N[C@H]1CCCC[C@H]2CC[C@@H](C(=O)N3CCC(c4n[nH]cc4F)CC3)N2C1=O)c1cc2cc(C(F)P(=O)(O)O)ccc2s1 (stereo partly drawn) [Compound 587, (fluoro(2-(((3S,6S,10aS)-3-(4-(4-fluoro-1H-pyrazol-3-yl)piperidine-1-carbonyl)-5-oxodecahydropyrrolo[1,2-a]azocin-6-yl)carbamoyl)benzo[b]thiophen-5-yl)methyl)phosphonic acid]",1 to 10,3 to 30
"O=C(N[C@H]1CCCC[C@H]2CC[C@@H](C(=O)N3CCC(c4ncncc4F)CC3)N2C1=O)c1cc2cc(C(F)P(=O)(O)O)ccc2s1 (stereo partly drawn) [Compound 588, (fluoro(2-(((3S,6S,10aS)-3-(4-(5-fluoropyrimidin-4-yl)piperidine-1-carbonyl)-5-oxodecahydropyrrolo[1,2-a]azocin-6-yl)carbamoyl)benzo[b]thiophen-5-yl)methyl)phosphonic acid]",1 to 10,3 to 30
"O=C(N[C@H]1CCCC[C@H]2CC[C@@H](C(=O)N3CCC(c4cc[nH]n4)CC3)N2C1=O)c1cc2cc(C(F)P(=O)(O)O)ccc2s1 (stereo partly drawn) [Compound 589, ((2-(((3S,6S,10aS)-3-(4-(1H-pyrazol-3-yl)piperidine-1-carbonyl)-5-oxodecahydropyrrolo[1,2-a]azocin-6-yl)carbamoyl)benzo[b]thiophen-5-yl)fluoromethyl)phosphonic acid]",1 to 10,3 to 30
"O=C(N[C@H]1CCCC[C@H]2CC[C@@H](C(=O)N3CCC(c4ccncn4)CC3)N2C1=O)c1cc2cc(C(F)P(=O)(O)O)ccc2s1 (stereo partly drawn) [Compound 590, (fluoro(2-(((3S,6S,10aS)-5-oxo-3-(4-(pyrimidin-4-yl)piperidine-1-carbonyl)decahydropyrrolo[1,2-a]azocin-6-yl)carbamoyl)benzo[b]thiophen-5-yl)methyl)phosphonic acid]",1 to 10,3 to 30
"O=C(N[C@H]1CCC[C@H]2CC[C@@H](C(=O)N3CCC(c4n[nH]cc4F)CC3)N2C1=O)c1cc2cc(C(F)P(=O)(O)O)ccc2s1 (stereo partly drawn) [Compound 591, (fluoro(2-(((3S,6S,9aS)-3-(4-(4-fluoro-1H-pyrazol-3-yl)piperidine-1-carbonyl)-5-oxooctahydro-1H-pyrrolo[1,2-a]azepin-6-yl)carbamoyl)benzo[b]thiophen-5-yl)methyl)phosphonic acid]",1 to 10,3 to 30
"COc1cc(C(F)F)ncc1C1CN(C(=O)[C@@H]2CC[C@@H]3CCC[C@H](NC(=O)c4cc5cc(CP(=O)(O)O)ccc5s4)C(=O)N32)C1 [Compound 593, ((2-(((3S,6S,9aS)-3-(3-(6-(difluoromethyl)-4-methoxypyridin-3-yl)azetidine-1-carbonyl)-5-oxooctahydro-1H-pyrrolo[1,2-a]azepin-6-yl)carbamoyl)benzo [b]thiophen-5-yl)methyl) phosphonic acid]",1 to 10,3 to 30
"COc1ccnc(C(F)F)c1C1CN(C(=O)[C@@H]2CC[C@@H]3CCC[C@H](NC(=O)c4cc5cc(CP(=O)(O)O)ccc5s4)C(=O)N32)C1 [Compound 594, ((2-(((3S,6S,9aS)-3-(3-(2-(difluoromethyl)-4-methoxypyridin-3-yl)azetidine-1-carbonyl)-5-oxooctahydro-1H-pyrrolo[1,2-a]azepin-6-yl)carbamoyl)benzo [b]thiophen-5-yl)methyl) phosphonic acid]",1 to 10,3 to 30

# More lines, now with the values ahead:
IC50 [1] [µM],IC50 [2] [µM],Structure (SMILES)
1 to 10,3 to 30,"O=C(N[C@H]1CCC[C@H]2CC[C@@H](C(=O)N3CCC(c4ncncc4F)CC3)N2C1=O)c1cc2cc(C(F)P(=O)(O)O)ccc2s1 (stereo partly drawn) [Compound 582, (fluoro(2-(((3S,6S,9aS)-3-(4-(5-fluoropyrimidin-4-yl)piperidine-1-carbonyl)-5-oxooctahydro-1H-pyrrolo[1,2-a]azepin-6-yl)carbamoyl)benzo[b]thiophen-5-yl)methyl)phosphonic acid]"
0.1 to 1,3 to 30,"O=C(N[C@H]1CCC[C@H]2CC[C@@H](C(=O)N3CC(c4ncncc4F)C3)N2C1=O)c1cc2cc(C(F)P(=O)(O)O)ccc2s1 (stereo partly drawn) [Compound 583, (fluoro(2-(((3S,6S,9aS)-3-(3-(5-fluoropyrimidin-4-yl)azetidine-1-carbonyl)-5-oxooctahydro-1H-pyrrolo[1,2-a]azepin-6-yl)carbamoyl)benzo[b]thiophen-5-yl)methyl)phosphonic acid]"
< 0.1,3 to 30,"C[C@H]1CC[C@H](NC(=O)c2cc3cc(CP(=O)(O)O)ccc3s2)C(=O)N2[C@H](CC[C@H]2C(=O)N2CC(c3cnccc3F)C2)C1 [Compound 585, ((2-(((3S,6S,9S,10aR)-3-(3-(4-fluoropyridin-3-yl)azetidine-1-carbonyl)-9-methyl-5-oxodecahydropyrrolo[1,2-a]azocin-6-yl)carbamoyl)benzo[b]thiophen-5-yl)methyl)phosphonic acid]"
0.1 to 1,3 to 30,"O=C(N[C@H]1CCC[C@H]2CC[C@@H](C(=O)N3CC(c4cc(F)ccc4F)C3)N2C1=O)c1cc2cc(C(F)P(=O)(O)O)ccc2s1 (stereo partly drawn) [Compound 592, ((2-(((3S,6S,9aS)-3-(3-(2,5-difluorophenyl)azetidine-1-carbonyl)-5-oxooctahydro-1H-pyrrolo[1,2-a]azepin-6-yl)carbamoyl)benzo[b]thiophen-5-yl)fluoromethyl)phosphonic acid]"
0.1 to 1,3 to 30,"O=C(N[C@H]1CCC[C@H]2CC[C@@H](C(=O)N3CC(c4n[nH]cc4F)C3)N2C1=O)c1cc2cc(C(F)P(=O)(O)O)ccc2s1 (stereo partly drawn) [Compound 595, (fluoro(2-(((3S,6S,9aS)-3-(3-(4-fluoro-1H-pyrazol-3-yl)azetidine-1-carbonyl)-5-oxooctahydro-1H-pyrrolo[1,2-a]azepin-6-yl)carbamoyl)benzo [b]thiophen-5-yl)methyl) phosphonic acid]"
0.1 to 1,3 to 30,"O=C(N[C@H]1CCC[C@H]2CC[C@@H](C(=O)N3CC(c4cncc(F)c4)C3)N2C1=O)c1cc2cc(C(F)P(=O)(O)O)ccc2s1 (stereo partly drawn) [Compound 596, (fluoro(2-(((3S,6S,9aS)-3-(3-(5-fluoropyridin-3-yl)azetidine-1-carbonyl)-5-oxooctahydro-1H-pyrrolo[1,2-a]azepin-6-yl)carbamoyl)benzo [b]thiophen-5-yl)methyl) phosphonic acid]"
